# Literature values in US20230174656A1, “T[…] REMDESIVIR COMBINATION THERAPY FOR COVID-19 PNEUMONIA” (priority 2020, published 2023).
# Read-outs that look alike come from different tables or passages of the source.
# Tests used:
# [1] = system: CAR T cell-induced severe or life-threatening CRS; conditions: cited from earlier work
# [2] = cited from earlier work; for geometric mean maximum concentration of TCZ: patients with CAR T cell induced CRS, % CV in brackets
# [3] = system: COVID-19 pneumonia; conditions: cited from earlier work
substance,measurement,setting,value
TCZ: recombinant humanized monoclonal IgG1κ antibody that binds to human interleukin-6 receptor (IL-6R); light and heavy chains SEQ ID NOs. 1 and 2,patients achieving a response (afebrile and off vasopressors for at least 24 hours) within 14 days of the first dose of TCZ,"[1]; CTL019 series, 45 patients, maximum up to two doses",69%
same,median time from the first dose to response,[1]; CTL019 series,4 days
same,patients achieving a response,"[1]; axicabtagene ciloleucel series, 15 patients",53%
same,median time to response,[1]; axicabtagene ciloleucel series,4.5 days
same,adverse reactions attributable to TCZ,[1]; patients with CRS after CAR T-cell therapy,no reports of adverse reactions attributable to TCZ
same,geometric mean maximum concentration of TCZ,[2]; after the first infusion,99.5 µg/mL
same,geometric mean maximum concentration of TCZ,[2]; after the second infusion,160.7 µg/mL
same,clearance of TCZ (PK modeling analysis),[2]; patients with CRS versus healthy volunteers and other patient populations,faster clearance of TCZ than healthy volunteers and other patient populations
same,patients in whom percentage of lymphocytes in peripheral blood returned to normal,"[3]; 10/19, fifth day after treatment",52.6%
same,patients who had lowered their oxygen intake,[3]; 15 of 20 patients,75.0%
same,patients in whom abnormally elevated CRP decreased significantly,[3]; 16/19,84.2%
same,adverse drug reactions and subsequent pulmonary infections,[3]; 21 treated patients,No adverse drug reactions and no subsequent pulmonary infections were reported
same,deaths,[3]; 21 treated patients,no deaths among the 21 treated patients
same,fever after TCZ treatment,[3]; TCZ IV 400 mg plus standard of care,fever returned to normal
same,patients needing no oxygen therapy,[3]; after TCZ treatment,one patient needed no oxygen therapy
same,patients with significant remission of opacities in both lungs on CT scans,[3]; after treatment,90.5%
same,patients discharged at the time of the report,"[3]; nineteen patients, including two critical patients",90.5%
